Experimental data published in PubChem BioAssay AID248 (DTP/NCI, 2004).
Several values for one entry are separate records, joined by “and”; a condition that tells them apart may be missing. Identical values can stand only once. Toxic doses and inconclusive results are not listed. Cut-off read from the data, not from the text of the source: active = T/C of 150% or more; inactive = T/C below 125%.

System: L1210 leukemia ip in BDF1 mice, survival T/C
Assay: NCI In Vivo Anticancer Drug Screen. Data for tumor model L1210 Leukemia (intraperitoneal) in B6D2F1 (BDF1) mice
Conditions: endpoint: mean survival time, higher = longer survival
Outline: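 Mice bearing the transplanted tumor received compound or vehicle. Survival of the treated group was divided by that of the vehicle-treated control group to give the ratio.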

[1] = dose: 0.78 mg/kg/injection, schedule: Q01DX009 (ip), vehicle: saline
[2] = dose: 1.56 mg/kg/injection, schedule: Q01DX009 (ip), vehicle: saline
[3] = dose: 3.12 mg/kg/injection, schedule: Q01DX009 (ip), vehicle: saline
[4] = dose: 100.0 mg/kg/injection, schedule: Q01DX001 (ip), vehicle: Klucel (hydroxypropylcellulose) (HPC)
[5] = dose: 200.0 mg/kg/injection, schedule: Q01DX001 (ip), vehicle: Klucel (hydroxypropylcellulose) (HPC)
[6] = dose: 100.0 mg/kg/injection, schedule: Q01DX009 (ip), vehicle: saline with Tween-80
[7] = dose: 100.0 mg/kg/injection, schedule: Q01DX009 (ip), vehicle: saline
[8] = dose: 100.0 mg/kg/injection, schedule: Q04DX003 (ip), vehicle: saline with Tween-80
[9] = dose: 200.0 mg/kg/injection, schedule: Q04DX003 (ip), vehicle: saline with Tween-80
[10] = dose: 400.0 mg/kg/injection, schedule: Q04DX003 (ip), vehicle: saline with Tween-80

Measured: T/C

CN(C)CC/C=C1\c2ccccc2Sc2ccc(C(F)(F)F)cc21
inactive: [1] 97 % of control | dose: 0.78 mg/kg/injection, schedule: Q04DX003 (ip), vehicle: saline 102 % of control | [2] 105 % of control | dose: 1.56 mg/kg/injection, schedule: Q04DX003 (ip), vehicle: saline 105 % of control | [3] 115 % of control | dose: 3.12 mg/kg/injection, schedule: Q04DX003 (ip), vehicle: saline 100 % of control | dose: 6.0 mg/kg/injection, schedule: Q01DX Z (ip), vehicle: carboxymethylcellulose (CMC) 111 % of control | dose: 6.25 mg/kg/injection, schedule: Q04DX003 (ip), vehicle: saline 107 % of control | dose: 9.0 mg/kg/injection, schedule: Q01DX Z (ip), vehicle: carboxymethylcellulose (CMC) 103 % of control and 108 % of control | dose: 9.0 mg/kg/injection, schedule: Q01DX Z (ip), vehicle: other 110 % of control | dose: 12.5 mg/kg/injection, schedule: Q01DX009 (ip), vehicle: saline 122 % of control | dose: 12.5 mg/kg/injection, schedule: Q04DX003 (ip), vehicle: saline 105 % of control | dose: 14.0 mg/kg/injection, schedule: Q01DX Z (ip), vehicle: carboxymethylcellulose (CMC) 100 % of control and 111 % of control | dose: 17.5 mg/kg/injection, schedule: Q01DX001 (ip), vehicle: saline 114 % of control | dose: 21.0 mg/kg/injection, schedule: Q01DX Z (ip), vehicle: carboxymethylcellulose (CMC) 103 % of control | dose: 21.0 mg/kg/injection, schedule: Q01DX Z (ip), vehicle: other 110 % of control | dose: 31.0 mg/kg/injection, schedule: Q01DX Z (ip), vehicle: carboxymethylcellulose (CMC) 110 % of control | dose: 35.0 mg/kg/injection, schedule: Q01DX001 (ip), vehicle: saline 104 % of control | dose: 50.0 mg/kg/injection, schedule: Q04DX003 (ip), vehicle: saline 120 % of control | dose: 70.0 mg/kg/injection, schedule: Q01DX001 (ip), vehicle: saline 108 % of control | dose: 140.0 mg/kg/injection, schedule: Q01DX001 (ip), vehicle: saline 123 % of control

CC1(C)C2CCC13CC(=O)OC3C2 (centres undefined)
inactive: [1] 105 % of control | dose: 0.78 mg/kg/injection, schedule: Q04DX003 (ip), vehicle: acetone 101 % of control | [2] 100 % of control | dose: 1.56 mg/kg/injection, schedule: Q04DX003 (ip), vehicle: acetone 92 % of control | [3] 102 % of control | dose: 3.12 mg/kg/injection, schedule: Q04DX003 (ip), vehicle: acetone 98 % of control | dose: 4.6 mg/kg/injection, schedule: Q01DX009 (ip), vehicle: saline 89 % of control | dose: 7.0 mg/kg/injection, schedule: Q01DX009 (ip), vehicle: saline 91 % of control | dose: 10.5 mg/kg/injection, schedule: Q01DX009 (ip), vehicle: saline 104 % of control | dose: 15.0 mg/kg/injection, schedule: Q01DX009 (ip), vehicle: acetone 92 % of control

Cc1cc(C)c([N+](=O)[O-])c(N)n1
inactive: [4] 102 % of control | dose: 100.0 mg/kg/injection, schedule: Q01DX009 (ip), vehicle: Klucel (hydroxypropylcellulose) (HPC) 102 % of control | [5] 105 % of control | dose: 200.0 mg/kg/injection, schedule: Q01DX009 (ip), vehicle: Klucel (hydroxypropylcellulose) (HPC) 101 % of control | dose: 400.0 mg/kg/injection, schedule: Q01DX001 (ip), vehicle: Klucel (hydroxypropylcellulose) (HPC) 100 % of control | dose: 400.0 mg/kg/injection, schedule: Q01DX009 (ip), vehicle: Klucel (hydroxypropylcellulose) (HPC) 103 % of control

C1CCC(CCNCCC2CCCCC2)CC1
inactive: dose: 5.0 mg/kg/injection, schedule: Q01DX001 (ip), vehicle: saline 102 % of control | dose: 10.0 mg/kg/injection, schedule: Q01DX001 (ip), vehicle: saline 102 % of control | dose: 20.0 mg/kg/injection, schedule: Q01DX001 (ip), vehicle: saline 104 % of control

CC(=O)Oc1cccc(C)c1
inactive: [6] 104 % of control | dose: 200.0 mg/kg/injection, schedule: Q01DX009 (ip), vehicle: saline with Tween-80 106 % of control

CCCC(C)C(=NC)Nc1ccc(Cl)c(Cl)c1 (centres undefined)
inactive: dose: 11.1 mg/kg/injection, schedule: Q01DX Z (ip), vehicle: methylcellulose (MC) 91 % of control | dose: 16.6 mg/kg/injection, schedule: Q01DX Z (ip), vehicle: methylcellulose (MC) 95 % of control

CCCCCCCCCCCCCCCC(=O)N(CCCN)C(C)CCCN(CC)CC (centres undefined)
inactive: dose: 25.0 mg/kg/injection, schedule: Q01DX009 (ip), vehicle: saline with Tween-80 93 % of control | dose: 50.0 mg/kg/injection, schedule: Q01DX009 (ip), vehicle: saline with Tween-80 86 % of control | [6] 102 % of control | [8] 97 % of control | [9] 103 % of control | [10] 100 % of control

c1ccc(C(Nc2ccccn2)(c2ccccc2)c2ccccc2)cc1
inactive: dose: 100.0 mg/kg/injection, schedule: Q04DX002 (ip), vehicle: saline with Tween-80 104 % of control | dose: 200.0 mg/kg/injection, schedule: Q04DX002 (ip), vehicle: saline with Tween-80 101 % of control | dose: 400.0 mg/kg/injection, schedule: Q04DX002 (ip), vehicle: saline with Tween-80 93 % of control

O=C(COc1ccccc1)NCc1cccc(Cl)c1
inactive: dose: 100.0 mg/kg/injection, schedule: Q01DX009 (ip), vehicle: gum acacia 99 % of control | dose: 200.0 mg/kg/injection, schedule: Q01DX009 (ip), vehicle: gum acacia 92 % of control | dose: 400.0 mg/kg/injection, schedule: Q01DX009 (ip), vehicle: gum acacia 92 % of control

CCOC(=O)CCC(NC(=O)c1ccc(N(C)S(=O)(=O)c2ccc(C)cc2)c(F)c1)C(=O)OCC (centres undefined)
inactive: dose: 75.0 mg/kg/injection, schedule: Q01DX001 (ip), vehicle: saline 100 % of control | dose: 75.0 mg/kg/injection, schedule: Q04DX003 (ip), vehicle: saline 103 % of control | dose: 150.0 mg/kg/injection, schedule: Q01DX001 (ip), vehicle: saline 98 % of control | dose: 150.0 mg/kg/injection, schedule: Q04DX003 (ip), vehicle: saline 95 % of control | dose: 300.0 mg/kg/injection, schedule: Q01DX001 (ip), vehicle: saline 96 % of control | dose: 300.0 mg/kg/injection, schedule: Q04DX003 (ip), vehicle: saline 103 % of control

CCCCCCC(O)C/C=C/CCCCCCCC(=O)O (centres undefined)
inactive: dose: 100.0 mg/kg/injection, schedule: Q04DX002 (ip), vehicle: Klucel (hydroxypropylcellulose) (HPC) 96 % of control | dose: 200.0 mg/kg/injection, schedule: Q04DX002 (ip), vehicle: Klucel (hydroxypropylcellulose) (HPC) 93 % of control | dose: 400.0 mg/kg/injection, schedule: Q04DX002 (ip), vehicle: Klucel (hydroxypropylcellulose) (HPC) 86 % of control

O=C(CCCN1CCC2(CC1)OC(=O)N(c1ccc(F)cc1)C2=O)c1cccs1
inactive: dose: 50.0 mg/kg/injection, schedule: Q01DX001 (ip), vehicle: Klucel (hydroxypropylcellulose) (HPC) 94 % of control | [4] 91 % of control | [5] 88 % of control

C/C(CSc1ncnc2nc[nH]c12)=N\NC(N)=S
inactive: dose: 50.0 mg/kg/injection, schedule: Q04DX003 (ip), vehicle: saline with Tween-80 101 % of control | [8] 95 % of control and 102 % of control | [9] 93 % of control | [10] 104 % of control

CC(=O)Nc1cc(NC(C)=O)cc([N+](=O)[O-])c1
inactive: dose: 50.0 mg/kg/injection, schedule: Q01DX009 (ip), vehicle: saline 96 % of control | [7] 105 % of control | dose: 100.0 mg/kg/injection, schedule: Q04DX003 (ip), vehicle: saline 94 % of control | dose: 200.0 mg/kg/injection, schedule: Q04DX003 (ip), vehicle: saline 102 % of control | dose: 400.0 mg/kg/injection, schedule: Q04DX003 (ip), vehicle: saline 100 % of control

O=C(O)C(=O)O.[Co+3].[NH-]C(Cc1ccccc1)C(=O)[O-].[NH-]CCN(CC[NH-])CC[NH-] (centres undefined)
inactive: dose: 50.0 mg/kg/injection, schedule: Q01DX001 (ip), vehicle: saline 110 % of control | dose: 100.0 mg/kg/injection, schedule: Q01DX001 (ip), vehicle: saline 105 % of control | dose: 200.0 mg/kg/injection, schedule: Q01DX001 (ip), vehicle: saline 104 % of control | dose: 400.0 mg/kg/injection, schedule: Q01DX001 (ip), vehicle: saline 102 % of control
